{"source": "paper PMC6320955", "about": "“Self-Dissolving Microneedle Arrays for Transdermal Absorption Enhancement of Human Parathyroid Hormone (1-34)” (Pharmaceutics, 2018)", "key": {"[1]": {"tested_on": "rats with ovariectomy (OVX)-induced osteoporosis", "assay": "Therapeutic potential in post-menopausal rat model of osteoporosis (OVX)", "type": "in vivo, female Sprague-Dawley rats", "settings": "subcutaneous injection of PTH 20 µg/rat, hematoxylin and eosin", "procedure": "The post-menopausal rat model of osteoporosis was established by performing ovariectomies (OVX) of female Sprague-Dawley rats. Four weeks following OVX, PTH-loaded MNs (20 µg/rat) were applied to the rats twice a week, for a period of 4 weeks. Separately, PTH (20 µg/rat) was subcutaneously injected into the rats. Eight weeks after OVX, rats were euthanized, and the tibias were excised and fixed in 4% paraformaldehyde in PBS. The fixed tibias were then embedded in paraffin and sectioned by microtome. The sections of tibias were subsequently stained with hematoxylin and eosin and then used for histological analysis."}, "[2]": {"assay": "In vivo transdermal delivery of PTH: plasma pharmacokinetics", "set-up": "species or system Wistar rats", "settings": "sc, 20 ug/animal, rat, subcutaneous injection of PTH solution, 20 µg/rat, ELISA, mean ± SD of three rats", "procedure": "The abdominal skin of Wistar rats was shaved while the animals were placed under pentobarbital anesthesia (52 mg/kg as pentobarbital sodium salt). PTH-loaded MNs (20 µg/rat) were then applied to the abdominal skin of rats. The dosage of PTH in MNs was calculated based on the content of PTH in the needle part of MNs. Separately, PTH solution (20 µg/rat) was subcutaneously injected into the backs of rats. At pre-determined intervals, 0.3 mL of blood was withdrawn from the jugular veins while the animals were placed under pentobarbital anesthesia (52 mg/kg as pentobarbital sodium salt) and collected in tubes containing 0.3 mg of EDTA and 150 KIU of aprotinin. The collected blood was then centrifuged for 15 min at 4000 rpm to obtain plasma. […] The peak PTH plasma concentration (Cmax) and time to reach Cmax (Tmax) were determined directly from the plasma concentration–time profiles. Area under the plasma concentration-time curve (AUC) after transdermal administration or subcutaneous injection was calculated by the trapezoidal formula and extrapolation to infinite time based on monoexponential equation [26].\nThe PTH in the plasma sample was extracted and purified using SEP-columns. […] Concentrations of PTH were determined using the PTH (1-34) ELISA kit (PTH (1-34), Human, EIA Kit, High Sensitivity, Peninsula Laboratories International, Inc. San Carlos, CA, USA)."}, "[3]": {"assay": "Storage stability of PTH in MNs fabricated from HA and in PBS solution", "type": "physicochemical", "settings": "PTH dissolved in PBS, PTH (1-34) ELISA, mean of three experiments", "procedure": "PTH-loaded MNs were packaged into an aluminum sachet purged with nitrogen and stored at −20 °C, 4 °C, or at room temperature (15–20 °C). PTH solution dissolved in PBS was kept at the same temperatures as the control. Following one month of storage, the needles were separated from the back layers of MNs and dissolved in PBS. The actual amounts of PTH present in the needle parts of the MNs were measured using the PTH (1-34) ELISA kit (PTH (1-34), Human, EIA Kit, High Sensitivity, Peninsula Laboratories International, Inc. San Carlos, CA, USA)."}}, "data": [{"smiles": "CC[C@H](C)[C@H](NC(=O)[C@H](CCC(=O)O)NC(=O)[C@H](CO)NC(=O)[C@@H](NC(=O)[C@@H](N)CO)C(C)C)C(=O)N[C@@H](CCC(N)=O)C(=O)N[C@@H](CC(C)C)C(=O)N[C@@H](CCSC)C(=O)N[C@@H](Cc1c[nH]cn1)C(=O)N[C@@H](CC(N)=O)C(=O)N[C@@H](CC(C)C)C(=O)NCC(=O)N[C@@H](CCCCN)C(=O)N[C@@H](Cc1c[nH]cn1)C(=O)N[C@@H](CC(C)C)C(=O)N[C@@H](CC(N)=O)C(=O)N[C@@H](CO)C(=O)N[C@@H](CCSC)C(=O)N[C@@H](CCC(=O)O)C(=O)N[C@@H](CCCNC(=N)N)C(=O)N[C@H](C(=O)N[C@@H](CCC(=O)O)C(=O)N[C@@H](Cc1c[nH]c2ccccc12)C(=O)N[C@@H](CC(C)C)C(=O)N[C@@H](CCCNC(=N)N)C(=O)N[C@@H](CCCCN)C(=O)N[C@@H](CCCCN)C(=O)N[C@@H](CC(C)C)C(=O)N[C@@H](CCC(N)=O)C(=O)N[C@@H](CC(=O)O)C(=O)N[C@H](C(=O)N[C@@H](Cc1c[nH]cn1)C(=O)N[C@@H](CC(N)=O)C(=O)N[C@@H](Cc1ccccc1)C(=O)O)C(C)C)C(C)C", "note": "[PTH, Human parathyroid hormone (1-34)]", "values": [{"measurement": "effect on decrease in bone matrix density (tibia histology)", "setting": "[1]", "value": "effectively prevented"}, {"measurement": "Cmax", "setting": "[2]; Wistar", "value": "15.1 ± 4.6", "unit": "ng/mL"}, {"measurement": "Tmax", "setting": "[2]; in vivo", "value": 30, "unit": "min"}, {"measurement": "initial PTH retained in the solution after storage", "setting": "[3]; stored one month at 4 °C", "value": "~84", "unit": "%"}, {"measurement": "initial PTH retained in the solution after storage", "setting": "[3]; stored one month at room temperature (15–20 °C)", "value": "~13", "unit": "%"}, {"measurement": "initial PTH retained in the solution after storage", "setting": "[3]; stored one month at −20 °C", "value": "approximately 98%"}]}]}
